We go through twelve compounds from PubChem BioAssay AID651581 (Sanford-Burnham Center for Chemical Genomics, 2012).

Molecules are shown by their SMILES. Activity calls are given as the source filed them. No rule for the calls is given here.

For test [1], the target named is Endothelial PAS domain-containing protein 1 (Homo sapiens) (UniProt Q99814). The test can be described thus: potency against HIF reporters across cell lines – luminescence, panel, selectivity assay for HIF-2a inhibitor project, dose response (AID 651581). The settings on record: human cell HIF reporter.
The target in test [2] is Hypoxia-inducible factor 1-alpha (Homo sapiens) (UniProt Q16665). Described as above. Particulars: human cell HIF reporter, HIF-1a.
Hypoxia-inducible factor 1-alpha (Homo sapiens), sequence (Q16665 whole entry, looked up): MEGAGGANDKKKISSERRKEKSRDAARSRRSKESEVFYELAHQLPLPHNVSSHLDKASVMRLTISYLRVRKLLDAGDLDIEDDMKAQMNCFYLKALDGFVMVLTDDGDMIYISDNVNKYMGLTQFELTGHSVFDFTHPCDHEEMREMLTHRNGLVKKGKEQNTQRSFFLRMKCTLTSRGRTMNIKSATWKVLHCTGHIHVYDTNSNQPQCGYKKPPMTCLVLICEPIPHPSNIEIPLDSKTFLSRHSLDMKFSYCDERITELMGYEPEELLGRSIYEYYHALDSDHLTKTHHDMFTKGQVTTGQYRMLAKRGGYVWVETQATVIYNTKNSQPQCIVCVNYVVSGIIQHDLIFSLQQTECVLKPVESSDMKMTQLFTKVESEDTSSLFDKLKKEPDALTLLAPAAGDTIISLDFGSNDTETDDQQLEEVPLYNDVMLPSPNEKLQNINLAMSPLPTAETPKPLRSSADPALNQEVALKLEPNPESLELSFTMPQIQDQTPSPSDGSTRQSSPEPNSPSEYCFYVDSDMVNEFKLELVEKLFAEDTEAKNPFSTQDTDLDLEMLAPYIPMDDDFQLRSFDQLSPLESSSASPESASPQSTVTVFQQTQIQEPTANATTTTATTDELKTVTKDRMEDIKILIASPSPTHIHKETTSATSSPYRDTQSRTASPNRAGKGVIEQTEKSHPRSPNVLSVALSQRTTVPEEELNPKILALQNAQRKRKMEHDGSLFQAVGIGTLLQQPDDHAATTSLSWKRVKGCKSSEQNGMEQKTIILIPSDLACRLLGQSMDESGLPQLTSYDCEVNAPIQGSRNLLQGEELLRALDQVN

As to `O=C(CCCSc1nc2ccccc2s1)NC1=NCCS1`, the IC50 in test [1] (HIF-2a PANC, mean of runs) was 7.38 µM; in test [1] (HIF-2a PANC, run 1), 7.27 µM; in test [1] (HIF-2a PANC, run 2), 7.49 µM; in test [1] (HIF-2a, mean of runs), 6.38 µM; in test [1] (HIF-2a, run 1) it was 7.04 µM; in test [1] (HIF-2a, run 2), 5.72 µM. Further, the IC50 is 15 µM in test [2] (run 1) and 10.5 µM in test [2] (run 2). The IC50 entry in test [2] (mean of runs) was “inactive”.

On to `NC(=O)COC(=O)CCCSc1nc2ccccc2s1`, for which the IC50 was more than 99 µM in test [1] (HIF-2a PANC, run 1); 81.1 µM in test [1] (HIF-2a PANC, run 2); 8.53 µM in test [1] (HIF-2a, mean of runs); 8.5 µM in test [1] (HIF-2a, run 1); 8.56 µM in test [1] (HIF-2a, run 2); 5.5 µM in test [2] (run 1). Moreover, the IC50 in test [2] (run 2) worked out at 12.1 µM. In addition, the IC50 result in test [2] (mean of runs) is “inactive”.

Turning to `Cc1ccc(S(=O)(=O)c2ncccc2[N+](=O)[O-])cc1`, the IC50 in test [1] (HIF-2a PANC, mean of runs) was 18.7 µM; in test [1] (HIF-2a PANC, run 1) it was 20.6 µM; in test [1] (HIF-2a PANC, run 2), 16.9 µM; in test [1] (HIF-2a, mean of runs) it was 9.71 µM; in test [1] (HIF-2a, run 1), 10 µM; in test [1] (HIF-2a, run 2), 9.38 µM. In addition, the IC50 in test [2] (run 1) was determined as 21.3 µM; in test [2] (run 2), 23 µM. For the same compound, in test [2] (mean of runs), the IC50 entry was “inactive”.

Turning to `O=C(NNc1nc2ccccc2o1)c1ccccc1`, the IC50 in test [1] (HIF-2a PANC, mean of runs) is > 99 µM (inactive); in test [1] (HIF-2a PANC, run 1), more than 99 µM; in test [1] (HIF-2a PANC, run 2) it was more than 99 µM; in test [1] (HIF-2a, mean of runs), 6.37 µM; in test [1] (HIF-2a, run 1), 6.68 µM; in test [1] (HIF-2a, run 2) it was 6.06 µM. For the same compound, the values for the IC50 in test [2] (run 1) and in test [2] (run 2) were 46.1 µM and more than 99 µM, respectively.

For `CC(C)COc1ccc(C(=S)N2CCCC2)cc1`, the IC50 in test [1] (HIF-2a PANC, mean of runs) was 14.5 µM; in test [1] (HIF-2a PANC, run 1) it was 13.6 µM; in test [1] (HIF-2a PANC, run 2), 15.5 µM; in test [1] (HIF-2a, mean of runs), 4.91 µM; in test [1] (HIF-2a, run 1) it was 4.41 µM; in test [1] (HIF-2a, run 2), 5.42 µM. The IC50 in test [2] (run 1) and in test [2] (run 2) was more than 99 µM each time.

Take `CCOC(=O)c1ccc(Oc2nc(NC(C)(C)C)nc(N(C)C)n2)cc1`: the IC50 entry is “inactive” in test [1] (HIF-2a PANC, mean of runs); “inactive” in test [1] (HIF-2a, mean of runs); “inactive” in test [2] (mean of runs). Also, the IC50 in test [1] (HIF-2a PANC, run 1) is 20.7 µM; in test [1] (HIF-2a PANC, run 2), 51.9 µM; in test [1] (HIF-2a, run 1), 8.84 µM; in test [1] (HIF-2a, run 2), 11.9 µM; in test [2] (run 1) it was 21.8 µM; in test [2] (run 2), 31.4 µM.

Regarding `C/C(=N\OCc1cccc(C(=O)O)c1)c1ccc(Cl)cc1`, the IC50 in test [1] (HIF-2a PANC, mean of runs) was > 99 µM (inactive); in test [1] (HIF-2a PANC, run 1), more than 99 µM; in test [1] (HIF-2a PANC, run 2), more than 99 µM; in test [1] (HIF-2a, run 1), less than 10 µM; in test [1] (HIF-2a, run 2), 5.87 µM; in test [2] (run 1), more than 99 µM. The half-inhibitory concentration (IC50) in test [2] (run 2) is more than 99 µM.

Regarding `O=C(O)COc1ccc(-c2nccc(-c3ccccn3)n2)cc1`, the IC50 in test [1] (HIF-2a PANC, mean of runs) is 1.14 µM; in test [1] (HIF-2a PANC, run 1) it was 1.36 µM; in test [1] (HIF-2a PANC, run 2), 0.912 µM; in test [1] (HIF-2a, mean of runs), 0.913 µM; in test [1] (HIF-2a, run 1), 0.806 µM; in test [1] (HIF-2a, run 2) it was 1.02 µM. Moreover, the IC50 turned out to be 0.397 µM in test [2] (run 1) and 0.777 µM in test [2] (run 2). Also, the IC50 entry in test [2] (mean of runs) was “inactive”.

For `CNC(=O)NC(=O)COC(=O)CCCSc1nc2ccccc2s1`, the IC50 in test [1] (HIF-2a PANC, mean of runs) is 10.7 µM; in test [1] (HIF-2a PANC, run 1) it was 15.8 µM; in test [1] (HIF-2a PANC, run 2), 5.59 µM; in test [1] (HIF-2a, mean of runs) it was 4.96 µM; in test [1] (HIF-2a, run 1), 5.6 µM; in test [1] (HIF-2a, run 2) it was 4.32 µM. For the same compound, the values for the IC50 in test [2] (run 1) and in test [2] (run 2) were 6.15 µM and 8.11 µM, respectively. Also, in test [2] (mean of runs), the IC50 result was “inactive”.

`Cc1nc2cc(-c3ccc(Cl)cc3)nn2c(C)c1CCC(=O)NCc1ccco1`: the IC50 in test [1] (HIF-2a PANC, mean of runs) was 0.787 µM; in test [1] (HIF-2a PANC, run 1) it was 0.773 µM; in test [1] (HIF-2a PANC, run 2) it was 0.801 µM; in test [1] (HIF-2a, mean of runs), 1.43 µM; in test [1] (HIF-2a, run 1), 1.43 µM; in test [1] (HIF-2a, run 2), 1.44 µM. In addition, the results for the IC50 in test [2] (run 1) and in test [2] (run 2) were 3.16 µM and 2.84 µM, respectively. Also, the IC50 entry in test [2] (mean of runs) was “inactive”.

With `O=C1C=C(c2ccccc2)C(=O)N1Nc1ccccc1`, the IC50 in test [1] (HIF-2a PANC, mean of runs) was > 99 µM (inactive); in test [1] (HIF-2a PANC, run 1), more than 99 µM; in test [1] (HIF-2a PANC, run 2), more than 99 µM; in test [1] (HIF-2a, run 1), 11.2 µM; in test [1] (HIF-2a, run 2), 10.6 µM; in test [2] (mean of runs) it was 82.8 µM. For the same compound, the IC50 worked out at 76 µM in test [2] (run 1) and 89.5 µM in test [2] (run 2). For the same compound, in test [1] (HIF-2a, mean of runs), the IC50 result is “inactive”.

As to `O=C(O)c1ccc(N/N=C/c2ccc(C(F)(F)F)cc2)cc1`, the IC50 result is “inactive” in test [1] (HIF-2a PANC, mean of runs) and “inactive” in test [2] (mean of runs). Besides, the IC50 is 75.9 µM in test [1] (HIF-2a PANC, run 1); 8.53 µM in test [1] (HIF-2a PANC, run 2); 9.84 µM in test [1] (HIF-2a, mean of runs); 9.59 µM in test [1] (HIF-2a, run 1); 10.1 µM in test [1] (HIF-2a, run 2); 22.5 µM in test [2] (run 1). The compound also registered an IC50 in test [2] (run 2) of 21.7 µM.

What is called IC50 is the concentration that gives 50% inhibition.
